Entries after “also recorded” stand apart in the source; their conditions may differ.
Columns and labels:
Type in all cases: physicochemical
[1] = Grazing incidence X-ray diffraction of the DPPC monolayer; details: gaseous fluorocarbon, DPPC monolayer compressed at 40 mN·m^−1
Excerpt: The two diffraction peaks seen in the absence of fluorocarbon are characteristics of the molecular organisation of DPPC in crystalline islets (▪).

[2] = Compression isotherm (surface pressure versus molecular area) of a Langmuir DPPC monolayer as pulmonary surfactant model
Description: The monolayer of native pulmonary surfactant was modeled by a Langmuir monolayer of DPPC. In this model, the DPPC molecules were spread using a spreading solvent onto the surface of water contained in a trough coated with Teflon®. After evaporation of the solvent, the DPPC molecules were progressively compressed using two mobile Teflon® barriers. The variation of the surface pressure was measured as a function of the compression by a pressure sensor such as a Wilhelmy blade.
Small quantities of perfluorooctyl bromide (PFOB) in liquid form (1-200 μl), contacted with the DPPC monolayer, result in the disappearance of the liquid expanded/liquid condensed phase transition of the phospholipid. […] FIG. 1 compares the compression isotherms of a DPPC monolayer alone and in contact with the fluorocarbon. In absence of fluorocarbon, one notes the presence of a plateau reflecting the coexistence of the expanded liquid state (fluid phase) and the condensed liquid state (crystalline islets). […] The DPPC monolayer is totally fluid.
Placing the Langmuir trough in a close space saturated with PFOB vapour, it is possible to study the interactions between the DPPC monolayer and the gaseous PFOB.

[3] = Fluorescence microscopy of the DPPC monolayer contacted with gaseous fluorocarbon
Excerpt: Fluorescence microscopy makes it possible to visualize the dissolution of crystalline islets of DPPC molecules when the monolayer is contacted with gaseous PFOB (FIG. 3A).

[4] = gaseous fluorocarbon, saturated atmosphere

| SMILES | diffraction peaks characteristic of DPPC crystalline islets / crystalline islets [1] | plateau reflecting the coexistence of the expanded liquid state (fluid phase) and the condensed liquid state (crystalline islets) in the DPPC compression isotherm [2, 4] | crystalline islets of DPPC seen by fluorescence microscopy, course with time ([3]; monolayer compressed at 10 mN·m^−1, 3, 5 and 7 min) | crystalline islets of DPPC seen by fluorescence microscopy ([3]; monolayer compressed at 10 mN·m^−1, after 3 minutes) | crystalline islets of DPPC seen by fluorescence microscopy ([3]; monolayer compressed at 10 mN·m^−1, after 5 minutes) | crystalline islets of DPPC seen by fluorescence microscopy ([3]; monolayer compressed at 10 mN·m^−1, after 7 minutes) | state of the DPPC monolayer ([2]; gaseous fluorocarbon) | state of the DPPC monolayer ([2]; liquid fluorocarbon) | plateau reflecting the coexistence of the expanded liquid state (fluid phase) and the condensed liquid state (crystalline islets) in the DPPC compression isotherm ([2]; liquid fluorocarbon (1-200 μl) contacted with the DPPC monolayer) |
| --- | --- | --- | --- | --- | --- | --- | --- | --- | --- |
| FC(F)(F)C(F)(F)C(F)(F)C(F)(F)C=CC(F)(F)C(F)(F)C(F)(F)C(F)(F)F [Example F-44E, bis(perfluorobutyl)ethene] | these peaks have disappeared; also recorded: disappearance of the crystalline islets | no longer seen; also recorded: disappears | – | – | – | – | – | – | – |
| FC(F)(F)C(F)(F)C(F)(F)C(F)(F)C(F)(F)C(F)(F)C(F)(F)C(F)(F)Br [PFOB, 1-bromo-heptadecafluorooctane] | – | no longer seen; also recorded: disappears | progressively disappear | becomes small | almost completely re-spread | completely disappeared | totally fluid | totally fluid | no longer seen; also recorded: disappeared totally |

From US20080019926A1, “Lung Surfactant Supplements” (priority 2004, published 2008)
